Experiments:
Test in all cases: fitness (endpoint OD595 vs no drug) (fraction); higher = more growth
[1] = tested on: S. aureus DSM 20231
Summary of the method: (§1)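 Each well of a 384-well plate received 30 µl of culture at OD595 0.01, or 55 µl for S. pneumoniae. TSB, LB Lennox or CY served as media at 37 °C. OD595 was taken every 30 min for 14 h and corrected by subtracting the first reading. Fitness is the optical density at stationary-phase entry divided by the robust mean of no-drug controls, capped at 1.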

[2] = tested on: S. aureus Newman
Summary of the method: as §1

[3] = tested on: S. pneumoniae D39V
Summary of the method: as §1

CO[C@@]12[C@H](COC(N)=O)C3=C(C(=O)C(C)=C(N)C3=O)N1C[C@@H]1N[C@@H]12 [Mitomycin C] + CCCCCCCCCC(=O)N[C@@H]1[C@H]([C@@H]([C@H](O[C@H]1OC2=C3C=C4C=C2OC5=C(C=C(C=C5)[C@H]([C@H]6C(=O)N[C@@H](C7=C(C(=CC(=C7)O)OC8[C@H]([C@H]([C@@H]([C@H](O8)CO)O)O)O)C9=C(C=CC(=C9)[C@H](C(=O)N6)NC(=O)[C@@H]4NC(=O)[C@@H]1C2=CC(=CC(=C2)OC2=C(C=CC(=C2)[C@H](C(=O)N[C@H](CC2=CC(=C(O3)C=C2)Cl)C(=O)N1)N)O)O)O)C(=O)O)O[C@H]1[C@@H]([C@H]([C@@H]([C@H](O1)CO)O)O)NC(=O)C)Cl)CO)O)O [Teicoplanin]
fitness, main component drawn
Conditions | first compound 0.0156 µg/mL | first compound 0.0312 µg/mL | first compound 0.0625 µg/mL
[1], partner 0.1562 µg/mL | 0.813 | 0.757 | 0.513
[1], partner 0.3125 µg/mL | 0.855 | 0.81 | 0.418
[1], partner 0.625 µg/mL | 0.902 | 0.814 | 0.255
[2], partner 0.1562 µg/mL | 0.741 | 0.655 | 0.429
[2], partner 0.3125 µg/mL | 0.753 | 0.582 | 0.296
[2], partner 0.625 µg/mL | 0.568 | 0.417 | 0.138

fitness, [2], one replicate, main component drawn
Conditions | first compound 0.0156 µg/mL | first compound 0.0312 µg/mL | first compound 0.0625 µg/mL
partner 0.62 µg/mL | 0.603 | 0.482 | 0.141
partner 1.24 µg/mL | 0.482 | 0.322 | 0.02
partner 2.48 µg/mL | 0.0779 | 0.119 | 0.0423

CO[C@@]12[C@H](COC(N)=O)C3=C(C(=O)C(C)=C(N)C3=O)N1C[C@@H]1N[C@@H]12 [Mitomycin C] + CCN(CC)CCOC(=O)c1ccc(N)cc1 [Procaine]
fitness
Conditions | first compound 0.001075 µg/mL | first compound 0.00215 µg/mL | first compound 0.0043 µg/mL | first compound 0.0156 µg/mL | first compound 0.0312 µg/mL | first compound 0.0625 µg/mL
[1], partner 85.5 µg/mL | – | – | – | 0.724 | 0.668 | 0.533
[1], partner 171 µg/mL | – | – | – | 0.796 | 0.753 | 0.572
[1], partner 342 µg/mL | – | – | – | 0.754 | 0.743 | 0.576
[2], partner 85.5 µg/mL | – | – | – | 0.768 | 0.74 | 0.595
[2], partner 171 µg/mL | – | – | – | 0.765 | 0.695 | 0.582
[2], partner 342 µg/mL | – | – | – | 0.772 | 0.686 | 0.565
[3], partner 85.5 µg/mL | 0.966 | 0.935 | 0.844 | – | – | –
[3], partner 171 µg/mL | 0.929 | 0.939 | 0.814 | – | – | –
[3], partner 342 µg/mL | 0.937 | 0.951 | 0.826 | – | – | –

fitness, [3], one replicate
Conditions | first compound 0.002 µg/mL | first compound 0.004 µg/mL | first compound 0.008 µg/mL
partner 85.5 µg/mL | 0.923 | 0.885 | 0.633
partner 171 µg/mL | 0.885 | 0.847 | 0.641
partner 342 µg/mL | 0.818 | 0.812 | 0.645

CO[C@@]12[C@H](COC(N)=O)C3=C(C(=O)C(C)=C(N)C3=O)N1C[C@@H]1N[C@@H]12 [Mitomycin C] + CN1C2=CC=CC=C2N=C3C1=CC=CC3=O [Pyocyanin]
fitness
Conditions | first compound 0.001075 µg/mL | first compound 0.00215 µg/mL | first compound 0.0043 µg/mL | first compound 0.0156 µg/mL | first compound 0.0312 µg/mL | first compound 0.0625 µg/mL
[1], partner 1.25 µg/mL | – | – | – | 0.704 | 0.73 | 0.573
[1], partner 2.5 µg/mL | – | – | – | 0.668 | 0.691 | 0.555
[1], partner 5 µg/mL | – | – | – | 0.547 | 0.543 | 0.414
[2], partner 1.25 µg/mL | – | – | – | 0.648 | 0.614 | 0.49
[2], partner 2.5 µg/mL | – | – | – | 0.558 | 0.58 | 0.406
[2], partner 5 µg/mL | – | – | – | 0.265 | 0.239 | 0.0918
[3], partner 0.325 µg/mL | 0.964 | 0.984 | 0.847 | – | – | –
[3], partner 0.65 µg/mL | 0.964 | 0.975 | 0.844 | – | – | –
[3], partner 1.3 µg/mL | 0.726 | 0.721 | 0.621 | – | – | –

fitness, [3], one replicate
Conditions | first compound 0.002 µg/mL | first compound 0.004 µg/mL | first compound 0.008 µg/mL
partner 0.325 µg/mL | 0.853 | 0.77 | 0.642
partner 0.65 µg/mL | 0.835 | 0.802 | 0.744

CO[C@@]12[C@H](COC(N)=O)C3=C(C(=O)C(C)=C(N)C3=O)N1C[C@@H]1N[C@@H]12 [Mitomycin C] + CN(C)c1cc(NC(=O)CNC(C)(C)C)c(O)c2c1C[C@H]1C[C@H]3[C@H](N(C)C)C(O)=C(C(N)=O)C(=O)[C@@]3(O)C(O)=C1C2=O [Tigecycline]
fitness
Conditions | first compound 0.001075 µg/mL | first compound 0.002 µg/mL | first compound 0.00215 µg/mL | first compound 0.004 µg/mL | first compound 0.0043 µg/mL | first compound 0.008 µg/mL | first compound 0.0156 µg/mL | first compound 0.0312 µg/mL | first compound 0.0625 µg/mL
[2], partner 0.039 µg/mL | – | – | – | – | – | – | 0.7 | 0.661 | 0.551
[2], partner 0.078 µg/mL | – | – | – | – | – | – | 0.725 | 0.655 | 0.558
[2], partner 0.156 µg/mL | – | – | – | – | – | – | 0.746 | 0.679 | 0.505
[3], partner 0.65 µg/mL | 0.89 | 0.878 | 0.848 | 0.804 | 0.819 | 0.688 | – | – | –
[3], partner 1.3 µg/mL | 0.877 | 0.888 | 0.859 | 0.764 | 0.822 | 0.625 | – | – | –
[3], partner 2.6 µg/mL | 0.893 | 0.816 | 0.844 | 0.806 | 0.783 | 0.627 | – | – | –

CO[C@@]12[C@H](COC(N)=O)C3=C(C(=O)C(C)=C(N)C3=O)N1C[C@@H]1N[C@@H]12 [Mitomycin C] + CN[C@@H]1[C@H](O[C@H]2[C@H](O[C@H]3[C@H](O)[C@@H](O)[C@H](N=C(N)N)[C@@H](O)[C@@H]3N=C(N)N)O[C@@H](C)[C@]2(O)C=O)O[C@@H](CO)[C@H](O)[C@H]1O [Streptomycin]
fitness
Conditions | partner 1 µg/mL | partner 2 µg/mL | partner 4 µg/mL | partner 8 µg/mL
[2], first compound 0.0156 µg/mL | 0.727 | 0.683 | – | –
[2], first compound 0.0312 µg/mL | 0.666 | 0.677 | 0.523 | –
[2], first compound 0.0625 µg/mL | 0.473 | 0.402 | 0.272 | –
[3], first compound 0.001075 µg/mL | – | 0.883 | 0.913 | 0.939
[3], first compound 0.002 µg/mL | – | – | 0.857 | 0.802
[3], first compound 0.00215 µg/mL | – | 0.838 | 0.827 | 0.834
[3], first compound 0.004 µg/mL | – | – | 0.712 | 0.668
[3], first compound 0.0043 µg/mL | – | 0.701 | 0.741 | 0.717
[3], first compound 0.008 µg/mL | – | – | 0.54 | 0.56

fitness, [3], one replicate
Conditions | first compound 0.002 µg/mL | first compound 0.004 µg/mL | first compound 0.008 µg/mL
partner 2 µg/mL | 0.857 | 0.749 | 0.666
partner 16 µg/mL | 0.711 | 0.544 | 0.304

CO[C@@]12[C@H](COC(N)=O)C3=C(C(=O)C(C)=C(N)C3=O)N1C[C@@H]1N[C@@H]12 [Mitomycin C] + CO[C@H]1/C=C/O[C@@]2(C)Oc3c(C)c(O)c4c(O)c(c(/C=N/N5CCN(C)CC5)c(O)c4c3C2=O)NC(=O)/C(C)=C\C=C\[C@H](C)[C@H](O)[C@@H](C)[C@@H](O)[C@@H](C)[C@H](OC(C)=O)[C@@H]1C [Rifampicin]
fitness, [3]
Conditions | first compound 0.001075 µg/mL | first compound 0.002 µg/mL | first compound 0.00215 µg/mL | first compound 0.004 µg/mL | first compound 0.0043 µg/mL | first compound 0.008 µg/mL
partner 0.05 µg/mL | 0.779 | 0.647 | 0.664 | 0.558 | 0.517 | –
partner 0.1 µg/mL | 0.458 | 0.289 | 0.307 | 0.308 | 0.288 | 0.288
partner 0.2 µg/mL | 0.18 | – | 0.169 | – | 0.129 | –

fitness, [3], one replicate
Conditions | first compound 0.002 µg/mL | first compound 0.004 µg/mL | first compound 0.008 µg/mL
partner 0.025 µg/mL | 0.804 | 0.698 | 0.492
partner 0.2 µg/mL | 0 | 0 | 0

CO[C@@]12[C@H](COC(N)=O)C3=C(C(=O)C(C)=C(N)C3=O)N1C[C@@H]1N[C@@H]12 [Mitomycin C] + COc1cc(Cc2cnc(N)nc2N)cc(OC)c1OC [Trimethoprim]
fitness, [1]
Conditions | partner 0.125 µg/mL | partner 0.25 µg/mL | partner 0.5 µg/mL | partner 1 µg/mL
first compound 0.0156 µg/mL | 0.6 | 0.506 | 0.0394 | 0.0198
first compound 0.0312 µg/mL | 0.604 | 0.485 | 0.0541 | 0.0233
first compound 0.0625 µg/mL | 0.491 | 0.279 | 0.0513 | 0.0116

CO[C@@]12[C@H](COC(N)=O)C3=C(C(=O)C(C)=C(N)C3=O)N1C[C@@H]1N[C@@H]12 [Mitomycin C] + O=C1CN(/N=C/c2ccc([N+](=O)[O-])o2)C(=O)N1 [Nitrofurantoin]
fitness, [3]
Conditions | first compound 0.001075 µg/mL | first compound 0.002 µg/mL | first compound 0.00215 µg/mL | first compound 0.004 µg/mL | first compound 0.0043 µg/mL | first compound 0.008 µg/mL
partner 1.285 µg/mL | – | 0.896 | – | 0.74 | – | 0.588
partner 2 µg/mL | 0.889 | – | 0.883 | – | 0.759 | –
partner 2.57 µg/mL | – | 0.839 | – | 0.765 | – | 0.535
partner 4 µg/mL | 0.866 | – | 0.835 | – | 0.679 | –
partner 8 µg/mL | 0.803 | – | 0.755 | – | 0.554 | –

[3], partner 5.14 µg/mL, one replicate
Conditions | fitness
first compound 0.002 µg/mL | 0.723
first compound 0.004 µg/mL | 0.613
first compound 0.008 µg/mL | 0.419

Source: the supplement of paper PMC10627819
